{
  "source": "patent US20240092784A1",
  "about": "“CONDENSED HETEROCYCLIC COMPOUND” (NISSAN CHEMICAL CORPORATION, priority 2020, published 2024)",
  "data": [
    {"biological_target": "human SPR (Homo sapiens (Human), UniProt P35270)", "sequence (P35270 whole entry)": "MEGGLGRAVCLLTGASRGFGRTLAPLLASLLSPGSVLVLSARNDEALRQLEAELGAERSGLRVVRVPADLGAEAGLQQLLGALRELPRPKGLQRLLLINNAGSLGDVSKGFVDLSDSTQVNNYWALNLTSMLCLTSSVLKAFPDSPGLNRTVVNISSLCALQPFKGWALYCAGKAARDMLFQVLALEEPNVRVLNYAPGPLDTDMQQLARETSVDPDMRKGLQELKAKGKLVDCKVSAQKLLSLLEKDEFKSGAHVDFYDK", "assay": "Evaluation Example 2: Measurement of human SPR inhibitory activity (seven concentrations, sepiapterin absorbance at 420 nm)", "format": "biochemical", "details": "Evaluation Example 2, seven concentrations 0.14 nM to 100 nM, 240 minutes at room temperature, read-out: IC50", "procedure,_shortened": "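His-tagged full-length human SPR (1-261) was expressed in E. coli and the tag removed. Enzyme at 150 ng/mL in 100 mM Tris-HCl pH 7.5/0.01% BSA was mixed with compound (0.14–100 nM, seven points), 120 μM sepiapterin and 160 μM NADPH, both as added-solution concentrations. After 240 min at room temperature, remaining sepiapterin was read at 420 nm to give percent inhibition.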", "units": {"IC50": "nM"}, "values": [
      {"smiles": "Cc1nn2c(O)c(C(=O)NC3CC3)c(=O)n(CC(C)C)c2c1/C=C/C(=O)N1CCC[C@@H]1c1ccccn1", "note": "[Synthesis Example 635, (R,E)-N-Cyclopropyl-7-hydroxy-4-isobutyl-2-methyl-5-oxo-3-(3-oxo-3-(2-(pyridin-2-yl)pyrrolidin-1-yl)prop-1-en-1-yl)-4,5-dihydropyrazolo[1,5-a]pyrimidine-6-carboxamide]", "IC50": 1.08},
      {"smiles": "Cc1nn2c(O)c(C(=O)NC3CC3)c(=O)n(CC(C)C)c2c1/C=C/C(=O)N(C)Cc1cnccn1", "note": "[Synthesis Example 636, (E)-N-Cyclopropyl-7-hydroxy-4-isobutyl-2-methyl-3-(3-(methyl(pyrazin-2-ylmethyl)amino)-3-oxoprop-1-en-1-yl)-5-oxo-4,5-dihydropyrazolo[1,5-a]pyrimidine-6-carboxamide]", "IC50": 1.47},
      {"smiles": "Cc1nn2c(O)c(C(=O)NC3CC3)c(=O)n(CC(C)C)c2c1/C=C/C(=O)N(C)Cc1cccnc1", "note": "[Synthesis Example 637, (E)-N-Cyclopropyl-7-hydroxy-4-isobutyl-2-methyl-3-(3-(methyl(pyridin-3-ylmethyl)amino)-3-oxoprop-1-en-1-yl)-5-oxo-4,5-dihydropyrazolo[1,5-a]pyrimidine-6-carboxamide]", "IC50": 0.89},
      {"smiles": "Cc1nn2c(O)c(C(=O)NC3CC3)c(=O)n(CC(C)C)c2c1/C=C/C(=O)N(C)Cc1ccccn1", "note": "[Synthesis Example 638, (E)-N-Cyclopropyl-7-hydroxy-4-isobutyl-2-methyl-3-(3-(methyl(pyridin-2-ylmethyl)amino)-3-oxoprop-1-en-1-yl)-5-oxo-4,5-dihydropyrazolo[1,5-a]pyrimidine-6-carboxamide]", "IC50": 1.05},
      {"smiles": "Cc1nn2c(O)c(C(=O)NC3CC3)c(=O)n(CC(C)C)c2c1/C=C/C(=O)N(C)Cc1ccn(C)n1", "note": "[Synthesis Example 639, (E)-N-Cyclopropyl-7-hydroxy-4-isobutyl-2-methyl-3-(3-(methyl((1-methyl-1H-pyrazol-3-yl)methyl)amino)-3-oxoprop-1-en-1-yl)-5-oxo-4,5-dihydropyrazolo[1,5-a]pyrimidine-6-carboxamide]", "IC50": 1.06},
      {"smiles": "CC[C@H]1CCCN1C(=O)/C=C/c1c(C)nn2c(O)c(C(=O)NC3CC3)c(=O)n(CC(C)C)c12", "note": "[Synthesis Example 640, (S,E)-N-Cyclopropyl-3-(3-(2-ethylpyrrolidin-1-yl)-3-oxoprop-1-en-1-yl)-7-hydroxy-4-isobutyl-2-methyl-5-oxo-4,5-dihydropyrazolo[1,5-a]pyrimidine-6-carboxamide]", "IC50": 1.16},
      {"smiles": "Cc1nn2c(O)c(C(=O)NC3CC3)c(=O)n(CC(C)C)c2c1/C=C/C(=O)N1[C@H](C)COC[C@@H]1C", "note": "[Synthesis Example 641, N-Cyclopropyl-3-((E)-3-(cis-3,5-dimethylmorpholino)-3-oxoprop-1-en-1-yl)-7-hydroxy-4-isobutyl-2-methyl-5-oxo-4,5-dihydropyrazolo[1,5-a]pyrimidine-6-carboxamide]", "IC50": 0.89},
      {"smiles": "Cc1nn2c(O)c(C(=O)NC3CC3)c(=O)n(CC(C)C)c2c1/C=C/C(=O)N1CCOC[C@H]1c1ccccc1", "note": "[Synthesis Example 642, (R,E)-N-Cyclopropyl-7-hydroxy-4-isobutyl-2-methyl-5-oxo-3-(3-oxo-3-(3-phenylmorpholino)prop-1-en-1-yl)-4,5-dihydropyrazolo[1,5-a]pyrimidine-6-carboxamide]", "IC50": 0.94},
      {"smiles": "Cc1nn2c(O)c(C(=O)NC3CC3)c(=O)n(CC(C)C)c2c1/C=C/C(=O)N1CCOC[C@@H]1c1ccccc1", "note": "[Synthesis Example 643, (S,E)-N-Cyclopropyl-7-hydroxy-4-isobutyl-2-methyl-5-oxo-3-(3-oxo-3-(3-phenylmorpholino)prop-1-en-1-yl)-4,5-dihydropyrazolo[1,5-a]pyrimidine-6-carboxamide]", "IC50": 1.37},
      {"smiles": "Cc1nn2c(O)c(C(=O)NC3CC3)c(=O)n(CC(C)C)c2c1/C=C/C(=O)N1C[C@@H](C)OC[C@H]1C", "note": "[Synthesis Example 644, N-Cyclopropyl-3-((E)-3-((2R,5R)-2,5-dimethylmorpholino)-3-oxoprop-1-en-1-yl)-7-hydroxy-4-isobutyl-2-methyl-5-oxo-4,5-dihydropyrazolo[1,5-a]pyrimidine-6-carboxamide]", "IC50": 0.91},
      {"smiles": "Cc1nn2c(O)c(C(=O)NC3CC3)c(=O)n(CC(C)C)c2c1/C=C/C(=O)N1C[C@H](C)OC[C@@H]1C", "note": "[Synthesis Example 645, N-Cyclopropyl-3-((E)-3-((2S,5S)-2,5-dimethylmorpholino)-3-oxoprop-1-en-1-yl)-7-hydroxy-4-isobutyl-2-methyl-5-oxo-4,5-dihydropyrazolo[1,5-a]pyrimidine-6-carboxamide]", "IC50": 0.8},
      {"smiles": "Cc1nn2c(O)c(C(=O)NC3CC3)c(=O)n(CC(C)C)c2c1/C=C/C(=O)N1C[C@H](C)OC[C@H]1C", "note": "[Synthesis Example 646, N-Cyclopropyl-3-((E)-3-((2S,5R)-2,5-dimethylmorpholino)-3-oxoprop-1-en-1-yl)-7-hydroxy-4-isobutyl-2-methyl-5-oxo-4,5-dihydropyrazolo[1,5-a]pyrimidine-6-carboxamide]", "IC50": 0.87},
      {"smiles": "Cc1nn2c(O)c(C(=O)NC3CC3)c(=O)n(CC(C)C)c2c1/C=C/C(=O)N1C[C@@H](C)OC[C@@H]1C", "note": "[Synthesis Example 647, N-Cyclopropyl-3-((E)-3-((2R,5S)-2,5-dimethylmorpholino)-3-oxoprop-1-en-1-yl)-7-hydroxy-4-isobutyl-2-methyl-5-oxo-4,5-dihydropyrazolo[1,5-a]pyrimidine-6-carboxamide]", "IC50": 0.81},
      {"smiles": "Cc1nn2c(O)c(C(=O)NC3CC3)c(=O)n(CC(C)C)c2c1/C=C/C(=O)N1C[C@@H](F)[C@@H](F)C1", "note": "[Synthesis Example 648, N-Cyclopropyl-3-((E)-3-(cis-3,4-difluoropyrrolidin-1-yl)-3-oxoprop-1-en-1-yl)-7-hydroxy-4-isobutyl-2-methyl-5-oxo-4,5-dihydropyrazolo[1,5-a]pyrimidine-6-carboxamide]", "IC50": 0.74},
      {"smiles": "Cc1nn2c(O)c(C(=O)NC3CC3)c(=O)n(CC(C)C)c2c1/C=C/C(=O)N1C2CCC1CC(F)(F)C2", "note": "[Synthesis Example 650, (E)-N-Cyclopropyl-3-(3-(3,3-difluoro-8-azabicyclo[3.2.1]octan-8-yl)-3-oxoprop-1-en-1-yl)-7-hydroxy-4-isobutyl-2-methyl-5-oxo-4,5-dihydropyrazolo[1,5-a]pyrimidine-6-carboxamide]", "IC50": 0.95},
      {"smiles": "Cc1nn2c(O)c(C(=O)NC3CC3)c(=O)n(CC(C)C)c2c1/C=C/C(=O)N1CC2CCC(C1)C2(F)F", "note": "[Synthesis Example 651, (E)-N-Cyclopropyl-3-(3-(8,8-difluoro-3-azabicyclo[3.2.1]octan-3-yl)-3-oxoprop-1-en-1-yl)-7-hydroxy-4-isobutyl-2-methyl-5-oxo-4,5-dihydropyrazolo[1,5-a]pyrimidine-6-carboxamide]", "IC50": 1.19},
      {"smiles": "Cc1nn2c(O)c(C(=O)NC3CC3)c(=O)n(CC(C)C)c2c1/C=C/C(=O)N1CCCC12CC2", "note": "[Synthesis Example 652, (E)-N-Cyclopropyl-7-hydroxy-4-isobutyl-2-methyl-5-oxo-3-(3-oxo-3-(4-azaspiro[2.4]heptan-4-yl)prop-1-en-1-yl)-4,5-dihydropyrazolo[1,5-a]pyrimidine-6-carboxamide]", "IC50": 2.18}
    ]}
  ]
}
